SMILES strings stand for the structures. Bridge positions count the residues as written; N and C are the ends. Square brackets hold non-standard residues; d marks the D form. Peptide text beside a SMILES is read from it. Nle = CCCC[C@H](N)C(=O)O

The text below walks through data of patent US11780893B2, “Kv1.3 blockers” (Zealand Pharma A/S, priority 2019, dated 2023).

The target in assay [1] is T1, Kv1.1 (Homo sapiens, UniProt Q09470).
T1 construct: expressed in transfected cells; host or cells: Chinese Hamster Ovary (CHO)
Kind of assay: cell-based. The conditions noted are these: for IC50: CHO cells, whole-cell patch clamp, read-out: Potency IC50 (nM) Kv1.1; for Selectivity Kv1.1/Kv1.3: ratio IC50[Kv1.1]/IC50[Kv1.3]. On the technique in general: In patch-clamp work, channel activity is measured electrically.

The target of assay [2] is T2, Kv1.2 (Homo sapiens, UniProt P16389).
T2 construct: expressed in transfected cells; host or cells: Chinese Hamster Ovary (CHO)
Nature of the assay: cell-based. As to conditions: CHO cells, whole-cell patch clamp; read-out: Potency IC50 (nM) Kv1.2.

Assay [3] addresses Rat whole blood (Rattus norvegicus, UniProt P15384).
For assay [4], the target named is T3, Kv1.6 (Homo sapiens, UniProt P17658).
T3 construct: expressed in transfected cells; host or cells: Chinese Hamster Ovary (CHO)
Kind of assay: cell-based. As to conditions: for IC50: CHO cells, whole-cell patch clamp, read-out: Potency IC50 (nM) Kv1.6.

Assay [5] deals with T4, human Kv1.3 voltage-gated K+ channel (Homo sapiens, UniProt P22001).
T4 construct: host or cells: CHO-DUKX
Kind of assay: cell-based. The conditions noted are these: inhibition of thallium flux, CHO-DUKX cells with human Kv1.3; read-out: IC50.

Assay [6] has as its target T5, Kv1.3 (Homo sapiens, UniProt P22001).
T5 construct: expressed in transfected cells; host or cells: Chinese Hamster Ovary (CHO)
Nature of the assay: cell-based. The conditions noted are these: CHO cells, whole-cell patch clamp; read-out: Potency IC50 (nM) Kv1.3.

T1 sequence (Q09470 whole entry): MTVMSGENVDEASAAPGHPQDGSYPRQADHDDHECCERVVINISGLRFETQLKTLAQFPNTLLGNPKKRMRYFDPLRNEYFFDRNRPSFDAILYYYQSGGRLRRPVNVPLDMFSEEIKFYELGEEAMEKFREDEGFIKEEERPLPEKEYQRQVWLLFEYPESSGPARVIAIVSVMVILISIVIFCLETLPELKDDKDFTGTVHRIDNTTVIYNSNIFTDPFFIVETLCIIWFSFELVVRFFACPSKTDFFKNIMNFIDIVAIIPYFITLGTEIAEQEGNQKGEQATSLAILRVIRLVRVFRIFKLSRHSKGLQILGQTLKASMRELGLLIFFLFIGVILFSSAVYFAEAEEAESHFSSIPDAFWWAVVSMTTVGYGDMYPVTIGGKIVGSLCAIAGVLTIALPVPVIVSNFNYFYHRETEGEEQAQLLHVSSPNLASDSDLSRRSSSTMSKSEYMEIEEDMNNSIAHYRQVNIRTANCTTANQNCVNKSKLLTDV
T3 sequence (P17658 whole entry): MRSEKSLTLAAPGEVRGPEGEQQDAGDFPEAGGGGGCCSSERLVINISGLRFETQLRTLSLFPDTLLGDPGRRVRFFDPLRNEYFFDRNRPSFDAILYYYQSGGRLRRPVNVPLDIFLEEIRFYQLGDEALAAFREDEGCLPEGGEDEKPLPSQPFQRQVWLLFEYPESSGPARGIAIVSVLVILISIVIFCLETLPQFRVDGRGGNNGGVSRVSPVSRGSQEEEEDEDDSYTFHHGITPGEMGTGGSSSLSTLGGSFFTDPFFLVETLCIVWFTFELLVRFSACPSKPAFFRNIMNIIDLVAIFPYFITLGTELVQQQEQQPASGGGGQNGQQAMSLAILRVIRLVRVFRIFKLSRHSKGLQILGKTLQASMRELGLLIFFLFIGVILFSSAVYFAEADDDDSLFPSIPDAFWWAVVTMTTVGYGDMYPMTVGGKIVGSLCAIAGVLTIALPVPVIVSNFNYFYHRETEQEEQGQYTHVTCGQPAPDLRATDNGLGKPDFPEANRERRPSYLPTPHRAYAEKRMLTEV
T2 sequence (P16389 whole entry): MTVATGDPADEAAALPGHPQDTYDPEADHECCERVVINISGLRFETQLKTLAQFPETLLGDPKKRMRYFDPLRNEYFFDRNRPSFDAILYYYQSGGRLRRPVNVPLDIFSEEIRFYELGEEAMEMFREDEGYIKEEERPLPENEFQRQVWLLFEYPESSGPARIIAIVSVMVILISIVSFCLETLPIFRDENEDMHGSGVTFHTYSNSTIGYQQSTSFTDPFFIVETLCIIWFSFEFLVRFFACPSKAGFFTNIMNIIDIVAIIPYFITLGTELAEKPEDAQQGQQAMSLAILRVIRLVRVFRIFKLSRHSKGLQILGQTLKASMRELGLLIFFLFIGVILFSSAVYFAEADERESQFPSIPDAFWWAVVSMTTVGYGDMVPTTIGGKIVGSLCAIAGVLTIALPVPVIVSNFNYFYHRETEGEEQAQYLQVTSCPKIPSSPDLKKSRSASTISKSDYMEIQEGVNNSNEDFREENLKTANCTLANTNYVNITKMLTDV
Chain of Rat whole blood (P15384 whole entry): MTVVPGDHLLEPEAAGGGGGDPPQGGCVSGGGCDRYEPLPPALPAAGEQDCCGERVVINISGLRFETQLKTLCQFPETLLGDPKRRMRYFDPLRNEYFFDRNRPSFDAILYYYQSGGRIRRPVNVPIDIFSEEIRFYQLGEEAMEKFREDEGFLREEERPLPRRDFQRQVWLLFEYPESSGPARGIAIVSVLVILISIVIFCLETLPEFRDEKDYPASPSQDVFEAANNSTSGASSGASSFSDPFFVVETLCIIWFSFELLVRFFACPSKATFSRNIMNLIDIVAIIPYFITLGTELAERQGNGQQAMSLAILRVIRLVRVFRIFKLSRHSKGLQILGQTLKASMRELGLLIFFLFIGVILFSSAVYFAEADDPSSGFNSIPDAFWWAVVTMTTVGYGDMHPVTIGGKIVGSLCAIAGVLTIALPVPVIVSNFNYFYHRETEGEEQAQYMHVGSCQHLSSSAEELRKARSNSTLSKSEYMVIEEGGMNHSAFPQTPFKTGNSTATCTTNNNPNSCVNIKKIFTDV
T4 sequence (P22001 whole entry): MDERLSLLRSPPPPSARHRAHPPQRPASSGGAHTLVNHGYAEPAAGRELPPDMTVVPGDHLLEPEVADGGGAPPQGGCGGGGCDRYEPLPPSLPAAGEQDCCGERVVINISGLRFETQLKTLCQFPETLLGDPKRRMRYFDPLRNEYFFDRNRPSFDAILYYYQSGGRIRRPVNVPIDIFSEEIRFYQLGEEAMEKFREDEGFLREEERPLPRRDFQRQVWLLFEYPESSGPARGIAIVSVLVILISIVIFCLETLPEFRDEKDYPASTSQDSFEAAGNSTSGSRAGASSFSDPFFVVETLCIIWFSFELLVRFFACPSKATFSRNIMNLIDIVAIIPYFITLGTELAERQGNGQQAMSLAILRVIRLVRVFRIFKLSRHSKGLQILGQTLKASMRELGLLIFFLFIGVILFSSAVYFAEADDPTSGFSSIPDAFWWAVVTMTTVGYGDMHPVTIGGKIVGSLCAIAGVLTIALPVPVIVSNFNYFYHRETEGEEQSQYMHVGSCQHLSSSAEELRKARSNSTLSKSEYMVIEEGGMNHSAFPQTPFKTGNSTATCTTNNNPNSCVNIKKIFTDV
T5 sequence (P22001 whole entry): as above

As a reminder, the IC50 is the concentration at which inhibition is half-maximal. Take `CCCC[C@@H]1NC(=O)[C@@H]2CSSC[C@H](NC(C)=O)C(=O)N[C@@H](CO)C(=O)N[C@@H](C)C(=O)N[C@@H](CO)C(=O)N[C@@H](C(C)C)C(=O)N[C@@H](CCC(=O)O)C(=O)N[C@H]3CSSC[C@H](NC(=O)[C@H](CCCCN)NC(=O)[C@H](CCCCN)NC(=O)[C@H](CC(N)=O)NC1=O)C(=O)N[C@@H](CCCCN)C(=O)N[C@H](C(=O)N[C@@H](Cc1ccc(O)cc1)C(=O)N1CCC[C@H]1C(=O)N[C@@H](CCCNC(=N)N)C(N)=O)CSSC[C@H](NC(=O)[C@H](CCCCN)NC(=O)[C@H](CCC(N)=O)NC(=O)[C@H](CCCCN)NC3=O)C(=O)N[C@@H](CC(C)C)C(=O)N[C@@H](CCCCN)C(=O)N[C@@H](C)C(=O)N[C@@H]([C@@H](C)CC)C(=O)NCC(=O)N[C@@H](CO)C(=O)N[C@@H]([C@@H](C)CC)C(=O)N[C@@H](Cc1ccccc1)C(=O)NCC(=O)N[C@@H](CCCCN)C(=O)N2` [Compound 105] (Ac-CSASVECKQKCLKAIGSIFGKC[Nle]NKKCKCYPR-NH2; disulfide 1-22, 7-27, 11-29): the concentration for half-maximal inhibition (IC50) is greater than 3000 nM in assay [1]; 384 nM in assay [2]; no more than 1 nM in assay [3]; greater than 3000 nM in assay [4]; 0.16 nM in assay [5]; 0.24 nM in assay [6]. Besides, in assay [1], the “Selectivity Kv1.1/Kv1.3” value is greater than 12400. Besides, in assay [4] (ratio IC50[Kv1.6]/IC50[Kv1.3]), the “Selectivity Kv1.6/Kv1.3” value was greater than 12400.
Regarding `CCCC[C@@H]1NC(=O)[C@@H]2CSSC[C@H](NC(=O)[C@@H](N)CCCNC(=N)N)C(=O)N[C@@H](CO)C(=O)N[C@@H](C)C(=O)N[C@@H](CO)C(=O)N[C@@H](C(C)C)C(=O)N[C@@H](CCC(=O)O)C(=O)N[C@H]3CSSC[C@H](NC(=O)[C@H](CCCCN)NC(=O)[C@H](CCCCN)NC(=O)[C@H](CC(N)=O)NC1=O)C(=O)N[C@@H](CCCCN)C(=O)N[C@H](C(=O)N[C@@H](Cc1ccc(O)cc1)C(=O)N1CCC[C@H]1C(=O)N[C@@H](CCCNC(=N)N)C(N)=O)CSSC[C@H](NC(=O)[C@H](CCCCN)NC(=O)[C@H](CCC(N)=O)NC(=O)[C@H](CCCCN)NC3=O)C(=O)N[C@@H](CC(C)C)C(=O)N[C@@H](CCCCN)C(=O)N[C@@H](C)C(=O)N[C@@H]([C@@H](C)CC)C(=O)NCC(=O)N[C@@H](CO)C(=O)N[C@@H]([C@@H](C)CC)C(=O)N[C@@H](Cc1ccccc1)C(=O)NCC(=O)N[C@@H](CCCCN)C(=O)N2` [Compound 106] (H-RCSASVECKQKCLKAIGSIFGKC[Nle]NKKCKCYPR-NH2; disulfide 2-23, 8-28, 12-30), the IC50 was greater than 3000 nM in assay [1]; 280 nM in assay [2]; no more than 1 nM in assay [3]; 1300 nM in assay [4]; 0.092 nM in assay [5]; 0.4 nM in assay [6]. In assay [1], the “Selectivity Kv1.1/Kv1.3” value is recorded as greater than 7600.
With `CCCC[C@@H]1NC(=O)[C@@H]2CSSC[C@H](NC(=O)[C@H](CCCCN)NC(=O)[C@H](CO)NC(C)=O)C(=O)N[C@@H](CO)C(=O)N[C@@H](C)C(=O)N[C@@H](CO)C(=O)N[C@@H](C(C)C)C(=O)N[C@@H](CCC(=O)O)C(=O)N[C@H]3CSSC[C@H](NC(=O)[C@H](CCCCN)NC(=O)[C@H](CCCCN)NC(=O)[C@H](CC(N)=O)NC1=O)C(=O)N[C@@H](CCCCN)C(=O)N[C@H](C(=O)N[C@@H](Cc1ccc(O)cc1)C(=O)N1CCC[C@H]1C(=O)N[C@@H](CCCNC(=N)N)C(N)=O)CSSC[C@H](NC(=O)[C@H](CCCCN)NC(=O)[C@H](CCC(N)=O)NC(=O)[C@H](CCCCN)NC3=O)C(=O)N[C@@H](CC(C)C)C(=O)N[C@@H](CCCCN)C(=O)N[C@@H](C)C(=O)N[C@@H]([C@@H](C)CC)C(=O)NCC(=O)N[C@@H](CO)C(=O)N[C@@H]([C@@H](C)CC)C(=O)N[C@@H](Cc1ccccc1)C(=O)NCC(=O)N[C@@H](CCCCN)C(=O)N2` [Compound 107] (Ac-SKCSASVECKQKCLKAIGSIFGKC[Nle]NKKCKCYPR-NH2; disulfide 3-24, 9-29, 13-31), the IC50 in assay [1] is greater than 3000 nM; in assay [2], 196 nM; in assay [3], no more than 1 nM; in assay [4] it was 1450 nM; in assay [5], 0.084 nM; in assay [6], 1 nM. Besides, the “Selectivity Kv1.1/Kv1.3” value in assay [1] is listed as greater than 3000.
